Results as given in patent publication US20200338042A1, “USE OF DAPHNETIN IN TREATMENT OF AGE-RELATED COGNITIVE DECLINE” (XI'AN JIAOTONG UNIVERSITY, priority 2019, published 2020).

Key:
Format in all cases: in vivo
[1] = tested on: APP/PS1 transgenic mice; assay: Morris water maze experiment in APP/PS1 transgenic mice; settings: for path length for finding the platform in water maze: FIG. 1B
Source text: (§1) APP/PS1 transgenic mouse model as the Alzheimer's disease transgenic mouse model was used in the experiments. The APP/PS1 double-transgenic mice overexpressing human Aβ precursor protein (APP) and presenilin 1 (PS1) in the brains can simulate typical pathological and neurological symptoms, such as Aβ deposition and cognitive function degeneration, of human AD.
A water maze experiment was used to observe the effect of daphnetin for improving the cognitive function of the mice.
The 3-month-old APP/PS1 transgenic mice and control mice were purchased from the Model Animal Center of Nanjing University. All mice were fed in an environment with a temperature from 23° C. to 25° C., a humidity of 60%, and a 12 h/12 h day/night light cycles. Mice had free access to food and water during the experiment.
After adapting to the feeding environment, the experimental mice were divided into four groups: 1) a group of wild type (WT) mice to which double-distilled water (ddH2O) was daily administered intragastrically (Group WT+ddH2O), the number (n) of the mice is 11 (n=11); 2) a group of wild type mice to which daphnetin was daily administered intragastrically at 100 mg/kg/day (Group WT+Daphnetin), n=12; 3) a group of APP/PS1 mice to which ddH2O was daily administered intragastrically (Group AD+ddH2O), n=15; 4) a group of APP/PS1 mice to which daphnetin was daily administered intragastrically at 100 mg/kg/day (Group AD+Daphnetin), n=14. The entire experiment was lasted for 12 months.
The daily intragastric administrations of daphnetin or ddH2O were lasting for 9 months to corresponding groups of mice before the water maze experiment.
Morris water maze experiment is a classic way to test spatial learning and memory abilities in mice. The experiment was conducted in a round swimming pool with a diameter of 120 cm, divided into four quadrants I, II, III, and IV. A small round platform with a diameter of 7.5 cm was placed in the center the quadrant IV, and submerged 1 cm below the water surface. Four different-shaped markers as visual cues were placed corresponding to the four quadrants on the curtain support around the swimming pool. During the experiment, the water temperature was kept at 25° C., the surroundings were kept quiet, and the swimming pool was isolated from the external environment by the curtain. Each mouse was allowed to swim freely in the swimming pool for 60 seconds (s) on the day before the formal experiment to adapt to the swimming environment. […] The camera placed on the top of the pool recorded the paths of the mice finding the hidden platform in the swimming pool. […] The times and distances that the mice travels to the platform recorded by the camera video tracking system were used to analyze the learning and memory of the mice. […]

[2] = tested on: Aβ40; assay: ELISA detection of soluble Aβ40 in cerebral cortex tissues of APP/PS1 mice; settings: Group AD+Daphnetin (APP/PS1 mice, 100 mg/kg/day intragastrically) compared to Group AD+ddH2O; one week after water maze; FIG. 2A
Source text: as §1
(§2) The contents of Aβ40 and Aβ42 in the brain were detected by the enzyme-linked immunosorbent assay (ELISA) method to observe the effect of daphnetin for ameliorating abnormal protein deposition of the mice.
(§3) Daphnetin was purchased from Nanjing Puyi Biotechnology Co., Ltd.; Aβ40 and […] ELISA detection kits were purchased from Invitrogen Corporation. […]
(§4) Aβ plaque is a significant pathological feature of Alzheimer's disease. As Aβ40 and Aβ42 are most common in the process of producing Aβ, the contents of soluble Aβ40 and Aβ42 in the cerebral cortex tissues were detected by the ELISA method.
(§5) First, the cortex tissue was homogenized using a guanidine salt buffer (5 mol/L guanidine hydrochloride/50 mmol Tris HCl), and the tissue homogenate was centrifuged at 4° C. for 10 minutes at 10,000 g. […] The absorbance (OD450) at a wavelength of 450 nm was measured by a FlexStage3 microplate reader. Protein quantification was performed by using BCA method for ELISA protein calibration. […]

[3] = tested on: Aβ42; assay: ELISA detection of soluble Aβ42 in cerebral cortex tissues of APP/PS1 mice; settings: Group AD+Daphnetin (APP/PS1 mice, 100 mg/kg/day intragastrically) compared to Group AD+ddH2O; one week after water maze; FIG. 2B
Source text: as §1, §2, §3, §4, §5

SMILES: O=c1ccc2ccc(O)c(O)c2o1 [Daphnetin, 7,8-dihydroxycoumarin]
- AUC of swimming time (escape latency) in water maze, Group AD+ddH2O compared to Group AD+Daphnetin ([1]; 5-day training, worded as AD+ddH2O relative to AD+Daphnetin (100 mg/kg/day intragastrically, 9 months), i.e. lower AUC with daphnetin, FIG. 1C): increased significantly
- path length for finding the platform in water maze ([1]; day 4 of training, Group AD+Daphnetin (APP/PS1 mice, 100 mg/kg/day intragastrically, 9 months) compared to Group AD+ddH2O): significant shortened
- escape latency in water maze (time to find the escape platform) ([1]; day 5 of training, Group AD+Daphnetin (APP/PS1 mice, 100 mg/kg/day intragastrically, 9 months) compared to Group AD+ddH2O, FIG. 1A): significantly shortened
- path length for finding the platform in water maze ([1]; day 5 of training, Group AD+Daphnetin (APP/PS1 mice, 100 mg/kg/day intragastrically, 9 months) compared to Group AD+ddH2O): significant shortened
- level of Aβ40 in the cerebral cortex tissues [2]: significantly reduced
- level of Aβ42 in the cerebral cortex tissues [3]: significantly reduced
